Reference: patent US5789395A, “Method of using tetracycline compounds for inhibition of endogenous nitric oxide production” (The Research Foundation of State University of New York, priority 1996, dated 1998)
Entries after “also recorded” stand apart in the source; their conditions may differ.

Experiments:
[1] = test system: iNOS mRNA; experiment: iNOS mRNA expression in LPS-stimulated RAW 264.7 cells (RT-PCR); assay type: cell-based, murine; details: 20-40 μg/mL
Description: Doxycycline and minocycline may suppress iNOS before the synthesis of the enzyme, leading to inhibition of iNOS protein expression, specific activity and accumulation of nitrite. […] Therefore, to determine the level at which tetracycline inhibited iNOS protein expression, RAW 264.7 cells treated with LPS in the presence or absence of doxycycline and minocycline were analyzed for iNOS mRNA by semi-quantitative RT-PCR.
The presence of iNOS and β-actin mRNA in cells was analyzed by reverse transcription (RT) of total RNA followed by PCR amplification of the cDNA. The sense and antisense oligonucleotides for iNOS were, respectively, 5'-ACGGAGAAGCTTAGATCTGGAGCAGAAGTG-3'(142 to 171) (SEQ ID NO:1) and 5'-CTGCAGGTTGGACCACTGGATCCTGCCGAT-3' (767 to 796) (SEQ ID NO:2). The sense and antisense primers for β-actin were 5'-TCCTTCGTTGCCGGTCCACA-3' (44 to 63) (SEQ ID NO:3) and 5'-CGTCTCCGGAGTCCATCACA-3' (534 to 552) (SEQ ID NO:4), respectively. The predicted PCR product of the iNOS cDNA was 654 bp; that of the β-actin cDNA was 508 bp. The polymerase chain reaction was carried out in an automated DNA thermal cycle (Perkin-Elmer Cetus, Norwalk, Conn.). The total RNA was extracted using TRI-Reagent (MRC Inc., Cincinnati, Ohio). The cDNA was prepared from equal amounts (1-5 μg) of total RNA using a SuperScript™ RNase H Reverse Transcriptase (Gibco BRL, Gaithersburg, Md.). An equal amount of the cDNA was used to amplify the mRNA by PCR. PCR amplification was performed in 50 μL solution containing 1.5 mM MgCl2, 500 ng iNOS primer, 100 ng β-actin primer, 0.2 mM of each dNTP, 2.5 units of Taq DNA polymerase (Gibco). The cycle conditions for amplification of cDNA were 1 min at 94° C., 1-2 min at 55° C. and 3 min at 72° C. for 30 cycles for both iNOS and β-actin. The PCR product was analyzed by electrophoresis on 1.0% agarose gels.
RT-PCR analysis of iNOS and βactin mRNA expression in RAW 264.7 cells was carried out after stimulation with LPS±doxycycline or minocycline. […] Equal amounts of RNA were analyzed for iNOS and β-actin expression as described above.

[2] = target: T1, iNOS (Mus musculus, UniProt P29477); experiment: direct effect on specific activity of iNOS in cell-free extracts (L-arginine-to-L-citrulline conversion); assay type: biochemical, murine; details: for effect on the specific activity of iNOS in cell-free extracts: 20-80 μg/mL, 15 min preincubation; for effect on an ongoing L-arginine-to-L-citrulline reaction catalyzed by iNOS: cell-free extracts
T1 construct: prepared cell-free extracts as a source of iNOS enzyme; (cells); host or cells: RAW 264.7 murine macrophages, LPS-stimulated
Description: To evaluate the direct effect of doxycycline and minocycline on iNOS activity, we induced RAW 264.7 cells with LPS for 16 h in the absence of these agents and prepared cell-free extracts as a source of iNOS enzyme in the L-arginine-to-L-citrulline conversion assay.
Separate aliquots of the enzyme-containing cell-free extracts were preincubated for 15 min with 20-80 μg/ mL doxycycline, 20-80 μg/mL minocycline, 1 mM N-acetylimidazole and 200 μM L-NMMA, respectively, before the enzyme reaction was initiated by adding the co-factors. Various modulators including methanol (MeOH), the carrier for NAI (N-acetylimidazole), were added 15 min prior to the addition of the co-factors to initiate the iNOS reaction, as described. The specific activity was calculated and percent inhibition was compare to the original LPS-stimulated extract; 100% specific activity was 200 pmol citrulline/min/mg protein. The data shown in FIG. 4 represent one of two similar experiments.

[3] = test system: 133 kD iNOS; experiment: iNOS protein expression in LPS-activated RAW 264.7 cells (Western blot); assay type: cell-based, murine
Description: RAW 264.7 cells were activated with 100 ng/mL LPS for 16-18 h, with and without doxycycline or minocycline (20-80 μg/mL) or with hydrocortisone (10 μM). Cell-free extracts were prepared as described above. The extract s were analyzed for 133 kD iNOS by Western blotting, using specific anti-iNOS antibodies.
Equal amounts of protein (25-50 μg) estimated by BCA reagent (Pierce, Rockford, Ill.) were loaded onto SDS-PAGE gels and stained to verify the concentrations of various protein fractions by examining the intensities of the protein bands on the gels. Western blot analysis was carried out from the same cell extracts. The Western-blotted membrane was probed with a specific anti-murine iNOS monoclonal antibody (Transduction Laboratories, Lexington, Ky.), as specified by the supplier. The same blot was also probed with an anti-actin antibody generously provided by Dr. James L. Lessard (Children's Hospital Medical Center, Cincinnati, Ohio). The blots were developed using the ECL Western blot system (Amersham, Arlington Heights, Ill.). Quantitation of the bands was performed using a densitometer from Molecular Dynamics (Sunnyvale, Calif.). FIG. 5 is representative.

| Structure (SMILES) | decrease of iNOS mRNA expression [1] | effect on the specific activity of iNOS in cell-free extracts [2] | effect on an ongoing L-arginine-to-L-citrulline reaction catalyzed by iNOS [2] | inhibition of iNOS protein expression ([3]; 20 μg/mL) | inhibition of iNOS protein expression ([3]; 40 μg/mL) | inhibition of iNOS protein expression ([3]; 80 μg/mL) |
| --- | --- | --- | --- | --- | --- | --- |
| C[C@H]1c2cccc(O)c2C(O)=C2C(=O)[C@]3(O)C(O)=C(C(N)=O)C(=O)[C@@H](N(C)C)[C@@H]3[C@@H](O)[C@@H]21 [doxycycline] | > 50% | minimal effect; also recorded: no significant effect | could not block | 11% | 24% | 65% |
| CN(C)c1ccc(O)c2c1C[C@H]1C[C@H]3[C@H](N(C)C)C(O)=C(C(N)=O)C(=O)[C@@]3(O)C(O)=C1C2=O [minocycline] | > 50% | minimal effect; also recorded: no significant effect | could not block | 14% | 49% | 83% |
